Test results: PMC12389646, “Design, Synthesis, and Bioactivity Assessment of Modified Vemurafenib Analog” (Pharmaceuticals, 2025)

Experiments:
MMP-2 = assay: Gelatin zymography, MMP-2 in A375 conditioned media; assay type: cell-based, human; details: A375 cells, 1 μM and 5 μM, 24 h
Protocol: (§1) The potential effects of vemurafenib and its analogs on MMP-2 and MMP-9 activity in A375 cells were evaluated using gelatin zymography to detect gelatinolytic activity in conditioned media.
(§2) Gelatin zymography was carried out according to [30], using 7.5% SDS-polyacrylamide gels with 0.2% (w/v) gelatin. SDS-PAGE was run at 100 V at room temperature. Following electrophoresis, the gels were removed and placed in 2.5% (v/v) Triton X-100 to renature enzymes for 60 min. Then, gels were incubated in 50 mM Tris-HCl, 1 μM ZnCl2, 5 mM CaCl2, pH 7.5, overnight, to allow sufficient time for genatinolytic activity to occur. Following overnight incubation at 37 °C, gels were incubated in a staining solution (0.5% (v/v) Coomassie blue in a 40% methanol-10% acetic acid-water mixture) for 60 min. Following incubation, the staining solution, the gels were washed with the destaining solution (without coomassie blue) until the time to start to see the bands. Then imaged with a ChemiDoc^TM MP (BIO-RAD, Hercules, CA, USA) gel imaging system. Total protein and gelatinase activity were quantified using Image Lab™ Software 6.1 (BIO-RAD, Hercules, CA, USA).

[1] = test system: non-tumor HEK293T cell line; assay: MTS cell viability assay, HEK293T; assay type: cell-based, human; details: for IC50: Homo sapiens, HEK-293T, 24 h treatment; for Selectivity Index: IC50 HEK293T divided by IC50 A375
Protocol: (§3) The human cutaneous melanoma cancer cell line A375, obtained from the American Type Culture Collection (ATCC, Rockville, MD, USA) and human embryonic kidney HEK293T cell line, obtained from Rio de Janeiro Cell Bank (BCRJ, Rio de Janeiro, Brazil), were cultured in Dulbecco’s Modified Eagle’s Medium (DMEM, Sigma-Aldrich, St. Louis, MO, USA) supplemented with L-glutamine (2 mM), 10% fetal bovine serum (FBS), 50 IU/mL penicillin and 50 μg/mL streptomycin (Sigma-Aldrich, St. Louis, MO, USA). Cells were maintained at 37 °C in a humidified atmosphere containing 5% CO2. Low cell passages (between 5 and 20) were used in the present study.
(§4) Cell viability was measured using an MTS method based on the conversion of the tetrazolium salt MTS (3-(4,5-dimethylthiazol-2-yl)-5-(3-carboxymethoxyphenyl)-2-(4-sulfophenyl)-2H-tetrazolium, Sigma-Aldrich, St. Louis, MO, USA) to a purple formazan in the presence of phenazine methosulfate. The enzymes responsible are NADPH-dependent dehydrogenases, which are active in viable cells. Briefly, cells (5 × 10^4/well) were seeded in 96-well plates in medium with 10% FBS; after 24 h, the complete medium was replaced with fresh medium containing 1% FBS and incubated for 24 h. Fresh stock solutions were prepared on the day of the experiment, and the cells were treated with different concentrations of vemurafenib and analogs (0.01, 0.1, 0.5, 1, 5, and 10 μM). Effects were evaluated after 24 h. Untreated cells were incubated as controls. Following drug exposure, MTS was added, and the absorbance was measured at 570 nm using a microplate reader (CLARIOStar Plus, BMG LabTech, Ortenberg, Germany).
(§5) All the values of in vitro experiments are presented as the mean ± standard error of three independent experiments. Statistical analyses were performed via a one-way ANOVA with Dunnett’s post hoc test, and statistical significance was defined as * p < 0.05. IC50 values were calculated by non-linear regression analysis using an Inhibitor vs. normalized response model curve fit, as implemented. Statistical analyses were performed with GraphPad Prism 10.1.2 (GraphPad Software Inc., San Diego, CA, USA).

[2] = test system: human melanoma A375 cells; assay: MTS cell viability assay, A375; assay type: cell-based; details: A-375, 24 h treatment, 0.01-10 μM tested
Protocol: as §3, §4, §5

MMP-9 = assay: Gelatin zymography, MMP-9 in A375 conditioned media; assay type: cell-based, human; details: A375 cells, 1 μM and 5 μM, 24 h
Protocol: as §1, §2

A375 cells = assay: TUNEL DNA fragmentation assay; assay type: cell-based, human; details: 5 μM, 24 h
Protocol: To detect DNA fragmentation in A375 cells, a modified apoptosis TUNEL method was used with the MEBSTAIN Apoptosis TUNEL Kit Direct (MBL International Corporation, Woburn, MA, USA) according to the manufacturer’s protocol. Briefly, cells were grown in 8-well culture slides (Corning, NY, USA) and incubated with the compounds (5 μM) for 24 h. Following treatments, the cells were washed with PBS and subsequently stained with TdT buffer, TdT solution, and Propidium Iodide, according to the manufacturer’s instructions. Experiments were conducted by fluorescent microscopy. The images were collected by an EVOS M5000 microscope (Thermo Fisher Scientific, Waltham, MA, USA).

Row | SMILES | IC50 [2] | MMP-2 expression and activity (MMP-2) | IC50 ([1]; HEK293T cells, MTS) | Selectivity Index [1] | MMP-9 expression and activity (MMP-9) | cytotoxicity toward HEK293T cells ([1]; HEK293T cells, MTS) | DNA fragmentation / TUNEL-positive apoptotic cells (A375 cells) | MMP-2 expression and activity (MMP-2; listed as RF-87A)
1 | O=C(N/N=C/c1c[nH]c2ncc(Br)cc12)c1ccc2c(c1)CCCC2 [RF-86A (2a), (E)-N-((5-Bromo-1H-pyrrolo[2,3-b]pyridin-3-yl)methylene)-5,6,7,8-tetrahydronaphthalene-2-carbohydrazide] | 6.99 µM | reduced | 114 µM | 16.37 | – | – | – | –
2 | O=C(N/N=C/c1c[nH]c2ncc(Br)cc12)c1cnc2ccccc2n1 [RF-94B (2d), (E)-N-((5-Bromo-1H-pyrrolo[2,3-b]pyridin-3-yl)methylene)quinoxaline-2-carbohydrazide] | 46.3 µM | – | 25.5 µM | 0.55 | – | – | – | –
3 | CCCS(=O)(=O)Nc1ccc(F)c(C(=O)c2c[nH]c3ncc(-c4ccc(Cl)cc4)cc23)c1F [Vemurafenib] | 7.68 µM | – | > 1000 µM | >1000 | upregulated | no cytotoxicity | – | –

Further lines, with some results ahead:

Row | IC50 [2] | SMILES | MMP-2 expression and activity (MMP-2) | IC50 ([1]; HEK293T cells, MTS) | Selectivity Index [1] | MMP-9 expression and activity (MMP-9) | cytotoxicity toward HEK293T cells ([1]; HEK293T cells, MTS) | DNA fragmentation / TUNEL-positive apoptotic cells (A375 cells) | MMP-2 expression and activity (MMP-2; listed as RF-87A)
4 | 53 µM | O=C(N/N=C/c1c[nH]c2ncc(Br)cc12)c1cnccn1 [RF-94A (2c), (E)-N-((5-Bromo-1H-pyrrolo[2,3-b]pyridin-3-yl)methylene)pyrazine-2-carbohydrazide] | reduced | 25.8 µM | 0.49 | – | – | higher number of apoptotic cells | –
5 | 47.2 µM | O=C(N/N=C/c1c[nH]c2ncc(Br)cc12)c1ccccn1 [RF-87A (2b), (E)-N-((5-Bromo-1H-pyrrolo[2,3-b]pyridin-3-yl)methylene)picolinohydrazide] | reduced | 142 µM | 3.01 | – | – | – | reduced MMP-2 activity only at the lower concentration (1 μM)
